# Experimental data taken from patent US10220040B2, “Compounds, compositions and methods useful for cholesterol mobilization” (Cerenis Therapeutics Holding SA, priority 2010, dated 2019).
# Legend:
# C57Bl/6J mice = assay: In vivo liver uptake of [3H]-labelled mouse HDL and LDL; details: intravenous 10 nmole/kg
# Method: FIG. 16A-J: Increase of bile secretion following activation of P2Y13r pathway in mice. C57Bl/6J mice (n=10) were fasted for 2 h and then intravenously injected with Cangrelor® or Compound IIa (10 nmoles/kg). Four hours later the gallbladders were removed and analyzed for: Bile acids content (FIG. 16A); Bile cholesterol content (FIG. 16B). C57Bl/6J mice (n=10) were fasted for 2 h followed by single oral dose of P2Y13r agonist Compound IIa at 3, 30 or 300 μg/kg. Six hours later bile acids contents (FIG. 16C); bile cholesterol content (FIG. 16D), and bile acid content of liver (FIG. 16E) were evaluated using HPLC and enzymatic kits for gallbladers. Plasma samples were collected at time 0 and after 6 h of treatment, then analyzed for: total cholesterol (▴), unesterified cholesterol (●), esterified cholesterol (▪) and HDL cholesterol (▾) determined using either enzymatic kits or Lipoprint® for HDL cholesterol (FIG. 16F). […] Radioactivity present in the liver was determined 2 hours later for the HDL or 5 hours later for the LDL. Cholesterol content of feces from treated animals (100 μg/kg) was determined by Charge aerosol detection (FIG. 16J). *p<0.05, **p<0.01. […]
# apoE−/− mice = assay: ApoE−/− high-cholesterol diet model (aorta plaque progression); assay type: in vivo; details: 8 weeks diet then 4 weeks 100 μg/kg/day
# Method: FIG. 19A-L: Effect of P2Y13 agonist on atherosclerotic plaque progression in aortas of apoE^−/− mice. ApoE^−/− mice (n=20) were placed on a Western diet for 8 weeks followed by a 4 weeks oral gavage of vehicle or 100 μg/kg of Compound IIa. Aortas (n=10) were lipid extracted in 2:1 chloroform/methanol. FIG. 19A: the concentrations in total cholesterol were measured by HPLC and GC/MS and compared to parallel apoE−/− mice (n=10) on normal Chow diet as a baseline. FIG. 19B: quantification of the intima/media ratio (n=10). FIG. 19C: F4/80 antibody staining quantification (n=10). FIG. 19D: Oil Red O positive staining quantification (n=10). FIG. 19E: quantification of Sirius Red staining (n=10). FIG. 19F: anti-VCAM1 antibody staining quantification (n=10). The quantifications were expressed as the percentage of staining as compared to the sum of the intima and media area. *p<0.05. FIG. 19G to FIG. 19L: typical example of staining of aorta slides used for the quantifications. FIG. 19G and FIG. 19J: hematoxylin eosin staining of transversal sections of apoE^−/− mice aortas. FIG. 19H and FIG. 19K: Oil Red O staining of transversal sections of apoE^−/− mice aortas. FIG. 19I and FIG. 19L: VCAM1 antibody staining of transversal sections of apoE^−/− mice aortas.
# Mice were placed for two month on Western diet (0.2% cholesterol, 21% butter milk) then dosed with Compound IIa once a day at 100 μg/kg (0.5% CMC, 0.2% Tween80) for 4 more weeks. The mice were sacrificed and the aortas were collected for biochemical and immunohistological characterizations. One set of aorta (n=10) was detached at the base of the heart and placed in a glass tube with 3 ml of chloroform-methanol 2:1 (v/v), and stigmasterol as the internal standard. Then analyzed as described above. Another set of aortas (n=10) were first extensively washed with PBS, then with 4% paraformaldehyde (500 μl) and finally with tissue tek OCT (500 μl). Next the aorta was embedded in OCT and frozen at −20° C. Three step frozen sections of 10 μm separated one from the other were processed and stained with Oil red O (ORO), Sirius red and hematoxylin/eosin. Macrophages were detected using F4/80 primary rat monoclonal antibody (Abcam) and VCAM was detected using rat anti mouse CD106 (AbDSerotec).
# The prevention of progression of the plaque in aorta was further evaluated in the cholesterol diet-fed apoE−/− mice (FIG. 19). […] The collagen content of the wall was improved (FIG. 19E).
smiles,measurement,setting,value
"CN(C)c1ncc(CN2CCC(c3cc(O)nc(N4CCOCC4)n3)CC2)cn1 [Compound IIa, 6-[1-(2-Dimethylaminopyrimidin-5-ylmethyl)-piperidin-4-yl]-2-morpholin-4-yl-pyrimidin-4-ol]",liver uptake of labelled HDL as compared to LDL,C57Bl/6J mice,specific stimulation
same,VCAM1 expression (antibody CD106),apoE−/− mice,significant decreases
same,cholesterol content of aorta,apoE−/− mice,significant decreases
same,collagen content of the wall,apoE−/− mice,improved
same,lipid staining of aorta,apoE−/− mice,decrease
same,macrophage content (F4/80 antibody) of the aortic wall and the plaque,apoE−/− mice,decreased
same,plaque area in aorta,apoE−/− mice,significant decreases
